Source: PubChem BioAssay (NCI)
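Cultured in 96-well plates, cells were exposed to test compound for 48 hours across five concentrations. At the GI50, growth is halved. TGI denotes the concentration required for complete inhibition of growth.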

Experiments:
Test in all cases: inhibition of tumour cell growth, NCI panel, 48 h
RXF 393 renal = system: RXF 393 renal
SF-539 CNS = system: SF-539 CNS
K-562 leukemia = system: K-562 leukemia
MDA-MB-468 breast = system: MDA-MB-468 breast
HL-60(TB) leukemia = system: HL-60(TB) leukemia
MALME-3M melanoma = system: MALME-3M melanoma
BT-549 breast = system: BT-549 breast
SNB-19 CNS = system: SNB-19 CNS
NCI-H23 lung = system: NCI-H23 lung
MDA-MB-435 = system: MDA-MB-435
ACHN renal = system: ACHN renal
786-0 renal = system: 786-0 renal
M14 melanoma = system: M14 melanoma
MCF7 breast = system: MCF7 breast
SK-MEL-28 melanoma = system: SK-MEL-28 melanoma
OVCAR-8 ovarian = system: OVCAR-8 ovarian
SN12C renal = system: SN12C renal
SF-268 CNS = system: SF-268 CNS
MOLT-4 leukemia = system: MOLT-4 leukemia
LOX IMVI melanoma = system: LOX IMVI melanoma
NCI-H460 lung = system: NCI-H460 lung
SF-295 CNS = system: SF-295 CNS
HOP-92 NSCLC = system: HOP-92 NSCLC
OVCAR-3 ovarian = system: OVCAR-3 ovarian
OVCAR-4 ovarian = system: OVCAR-4 ovarian
CAKI-1 renal = system: CAKI-1 renal
RPMI-8226 leukemia = system: RPMI-8226 leukemia
COLO 205 colon = system: COLO 205 colon
MDA-MB-231 breast = system: MDA-MB-231 breast
HCT-15 colon = system: HCT-15 colon
PC-3 prostate = system: PC-3 prostate
NCI-H522 lung = system: NCI-H522 lung
HT29 colon = system: HT29 colon
KM12 colon = system: KM12 colon
TK-10 renal = system: TK-10 renal
HS 578T breast = system: HS 578T breast
A549 NSCLC = system: A549 NSCLC
A498 renal = system: A498 renal
SNB-75 CNS = system: SNB-75 CNS
EKVX NSCLC = system: EKVX NSCLC
SW-620 colon = system: SW-620 colon
T-47D breast = system: T-47D breast
HOP-62 NSCLC = system: HOP-62 NSCLC
SR leukemia = system: SR leukemia
NCI-H226 lung = system: NCI-H226 lung
NCI/ADR-RES ovarian = system: NCI/ADR-RES ovarian
SK-MEL-2 melanoma = system: SK-MEL-2 melanoma
CCRF-CEM leukemia = system: CCRF-CEM leukemia
IGROV1 ovarian = system: IGROV1 ovarian
DU-145 prostate = system: DU-145 prostate
SK-MEL-5 melanoma = system: SK-MEL-5 melanoma
UACC-62 melanoma = system: UACC-62 melanoma
HCC-2998 colon = system: HCC-2998 colon
OVCAR-5 ovarian = system: OVCAR-5 ovarian
UACC-257 melanoma = system: UACC-257 melanoma
HCT-116 colon = system: HCT-116 colon
SK-OV-3 ovarian = system: SK-OV-3 ovarian
UO-31 renal = system: UO-31 renal
U251 CNS = system: U251 CNS

## O=C(c1ccc(O)cc1)C1[C@H](c2ccc(Cl)cc2)[C@@H](c2ccccc2)NC12C(=O)Nc1ccccc12 (stereo partly drawn)
RXF 393 renal
  GI50: 5.77 µM
  TGI: 11.5 µM
SF-539 CNS
  GI50: 7.02 µM
  TGI: 12.8 µM
K-562 leukemia
  GI50: 8.89 µM
  TGI: 42 µM
MDA-MB-468 breast
  GI50: 4.86 µM
  TGI: 10.3 µM
HL-60(TB) leukemia
  GI50: 7.96 µM
  TGI: 25.6 µM
MALME-3M melanoma
  GI50: 6.68 µM
  TGI: 12.4 µM
BT-549 breast
  GI50: 8.32 µM
  TGI: 14.6 µM
SNB-19 CNS
  GI50: 6.71 µM
  TGI: 12.4 µM
NCI-H23 lung
  GI50: 6.29 µM
  TGI: 12.3 µM
MDA-MB-435
  GI50: 7.01 µM
  TGI: 13.6 µM
ACHN renal
  GI50: 6.08 µM
  TGI: 11.6 µM
786-0 renal
  GI50: 6.25 µM
  TGI: 12.2 µM
M14 melanoma
  GI50: 6.19 µM
  TGI: 13.6 µM
MCF7 breast
  GI50: 7.26 µM
  TGI: 17.2 µM
SK-MEL-28 melanoma
  GI50: 7.02 µM
  TGI: 12.9 µM
OVCAR-8 ovarian
  GI50: 7.2 µM
  TGI: 14.1 µM
SN12C renal
  GI50: 6.26 µM
  TGI: 12 µM
SF-268 CNS
  GI50: 7 µM
  TGI: 15.8 µM
MOLT-4 leukemia
  GI50: 4.84 µM
  TGI: 18.7 µM
LOX IMVI melanoma
  GI50: 4.97 µM
  TGI: 10.1 µM
NCI-H460 lung
  GI50: 7.63 µM
  TGI: 15.3 µM
SF-295 CNS
  GI50: 5.63 µM
  TGI: 11 µM
HOP-92 NSCLC
  GI50: 6.03 µM
  TGI: 12.4 µM
OVCAR-3 ovarian
  GI50: 6.95 µM
  TGI: 13.9 µM
OVCAR-4 ovarian
  GI50: 7.17 µM
  TGI: 16.3 µM
CAKI-1 renal
  GI50: 5.19 µM
  TGI: 10.8 µM
RPMI-8226 leukemia
  GI50: 8.61 µM
  TGI: 29.9 µM
COLO 205 colon
  GI50: 7.17 µM
  TGI: 15.3 µM
MDA-MB-231 breast
  GI50: 5.38 µM
  TGI: 10.8 µM
HCT-15 colon
  GI50: 5.6 µM
  TGI: 12.4 µM
PC-3 prostate
  GI50: 4.32 µM
  TGI: 11.7 µM
NCI-H522 lung
  GI50: 6.05 µM
  TGI: 12.5 µM
HT29 colon
  GI50: 6.11 µM
  TGI: 13.3 µM
KM12 colon
  GI50: 7.65 µM
  TGI: 16.1 µM
TK-10 renal
  GI50: 6.8 µM
  TGI: 13.2 µM
HS 578T breast
  GI50: 6.96 µM
  TGI: 18.8 µM
A549 NSCLC
  GI50: 5.8 µM
  TGI: 12.2 µM
A498 renal
  GI50: 5.89 µM
  TGI: 11.8 µM
SNB-75 CNS
  GI50: 5.25 µM
  TGI: 11 µM
EKVX NSCLC
  GI50: 5.3 µM
  TGI: 10.9 µM
SW-620 colon
  GI50: 8.11 µM
  TGI: 16 µM
T-47D breast
  GI50: 5.14 µM
  TGI: 12.9 µM
HOP-62 NSCLC
  GI50: 6.99 µM
  TGI: 14.7 µM
SR leukemia
  GI50: 5.14 µM
  TGI: 42 µM
NCI-H226 lung
  GI50: 5.37 µM
  TGI: 11.8 µM
NCI/ADR-RES ovarian
  GI50: 5.72 µM
  TGI: 11.8 µM
SK-MEL-2 melanoma
  GI50: 6.03 µM
  TGI: 12.1 µM
CCRF-CEM leukemia
  GI50: 5.9 µM
  TGI: 19.8 µM
IGROV1 ovarian
  GI50: 5.18 µM
  TGI: 10.6 µM
DU-145 prostate
  GI50: 7.77 µM
  TGI: 15.4 µM
SK-MEL-5 melanoma
  GI50: 6.91 µM
  TGI: 12.7 µM
UACC-62 melanoma
  GI50: 5 µM
  TGI: 10.2 µM
HCC-2998 colon
  GI50: 6.27 µM
  TGI: 12 µM
OVCAR-5 ovarian
  GI50: 6.42 µM
  TGI: 12.1 µM
UACC-257 melanoma
  GI50: 6.79 µM
  TGI: 12.9 µM
HCT-116 colon
  GI50: 6.22 µM
  TGI: 12.8 µM
SK-OV-3 ovarian
  GI50: 7.32 µM
  TGI: 14 µM
UO-31 renal
  GI50: 4.73 µM
  TGI: 9.79 µM
U251 CNS
  GI50: 6.57 µM
  TGI: 12.7 µM
